Experimental data as given in US10457709B2, “Antimicrobial peptides, their variants and uses” (priority 2015, dated 2019).
Read-outs that look alike come from different tables or passages of the source. Square brackets hold non-standard residues; d marks the D form. Peptide text beside a SMILES is read from it.

Key:
[1] = test system: Enterobacter cloacae clinical strains; assay type: cell-based; parameters: Minimum inhibitory concentration: unit: μg/ml; details: microdilution, Muller Hinton broth-cation adjusted, 0.02% BSA, 0.2% acetic acid
Summary of the method: (§1)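 Clinical isolates tested by broth microdilution at 5.0×10^5 cfu/ml with peptides at 0.125–128 μg/ml, incubated 20–24 h at 37° C. Bacteria were grown in Mueller Hinton broth and yeasts in potato dextrose broth. MIC is the lowest concentration showing no visible growth.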

[2] = test system: Proteus mirabilis clinical strains; assay type: cell-based; parameters: Minimum inhibitory concentration: unit: μg/ml; details: microdilution, Muller Hinton broth-cation adjusted, 0.02% BSA, 0.2% acetic acid
Summary of the method: as §1

[3] = test system: Serratia marcescens clinical strains; assay type: cell-based; parameters: Minimum inhibitory concentration: unit: μg/ml; details: microdilution, Muller Hinton broth-cation adjusted, 0.02% BSA, 0.2% acetic acid
Summary of the method: as §1

[4] = test system: Staphylococcus aureus clinical strains; assay type: cell-based; parameters: Minimum inhibitory concentration: unit: μg/ml; details: microdilution, Muller Hinton broth-cation adjusted, 0.02% BSA, 0.2% acetic acid
Summary of the method: as §1

[5] = test system: Streptococcus pneumoniae clinical strains; assay type: cell-based; parameters: Minimum inhibitory concentration: unit: μg/ml; details: microdilution, Muller Hinton broth-cation adjusted, 0.02% BSA, 0.2% acetic acid
Summary of the method: as §1

[6] = test system: Candida albicans clinical strains; assay: MIC, clinical yeast strains; assay type: cell-based; parameters: unit: μg/ml
Summary of the method: as §1

[7] = test system: C. glabrata clinical strains; assay: MIC, clinical yeast strains; assay type: cell-based, Candida glabrata; parameters: unit: µg/ml
Summary of the method: as §1

[8] = test system: C. parapsilosis clinical strains; assay: MIC, clinical yeast strains; assay type: cell-based, Candida parapsilosis; parameters: unit: µg/ml
Summary of the method: as §1

[9] = test system: C. quillermondiae clinical strains; assay: MIC, clinical yeast strains; assay type: cell-based, Candida quillermondiae; parameters: unit: μg/ml; details: C. quillermondiae clinical yeast strain 1
Summary of the method: as §1

[10] = test system: Escherichia coli clinical strains; assay type: cell-based; details: microdilution, Muller Hinton broth-cation adjusted, 0.02% BSA, 0.2% acetic acid
Summary of the method: as §1

[11] = test system: Klebsiella pneumoniae clinical strains; assay type: cell-based; details: microdilution, Muller Hinton broth-cation adjusted, 0.02% BSA, 0.2% acetic acid
Summary of the method: as §1

[12] = test system: Pseudomonas aeruginosa clinical strains; assay type: cell-based; details: microdilution, Muller Hinton broth-cation adjusted, 0.02% BSA, 0.2% acetic acid
Summary of the method: as §1

SMILES: CC(C)C[C@@H](NC(=O)[C@H](N)CCCCN)C(=O)N[C@H](CCCCN)C(=O)N[C@H](Cc1c[nH]c2ccccc12)C(=O)N[C@H](Cc1ccccc1)C(=O)N[C@H](Cc1c[nH]c2ccccc12)C(=O)N[C@H](CC(C)C)C(=O)N[C@H](Cc1ccccc1)C(=O)N[C@H](CCCCN)C(=O)N[C@H](CCCCN)C(=O)N[C@H](CCCNC(=N)N)C(=O)O [Chain311D] (H-[dK][dL][dK][dW][dF][dW][dL][dF][dK][dK][dR]-OH)
- Minimum inhibitory concentration ([1]; Enterobacter cloacae clinical strain 1): 4
- Minimum inhibitory concentration ([1]; Enterobacter cloacae clinical strain 2): 4
- Minimum inhibitory concentration ([1]; Enterobacter cloacae clinical strain 3): 4
- Minimum inhibitory concentration ([1]; Enterobacter cloacae clinical strain 4): 4
- Minimum inhibitory concentration ([1]; Enterobacter cloacae clinical strain 5): 2
- Minimum inhibitory concentration ([2]; Proteus mirabilis clinical strain 1): >128
- Minimum inhibitory concentration ([2]; Proteus mirabilis clinical strain 2): 128
- Minimum inhibitory concentration ([2]; Proteus mirabilis clinical strain 3): 128
- Minimum inhibitory concentration ([2]; Proteus mirabilis clinical strain 4): >128
- Minimum inhibitory concentration ([2]; Proteus mirabilis clinical strain 5): >128
- Minimum inhibitory concentration ([3]; Serratia marcescens clinical strain 1): >128
- Minimum inhibitory concentration ([3]; Serratia marcescens clinical strain 2): >128
- Minimum inhibitory concentration ([3]; Serratia marcescens clinical strain 3): >128
- Minimum inhibitory concentration ([3]; Serratia marcescens clinical strain 4): >128
- Minimum inhibitory concentration ([3]; Serratia marcescens clinical strain 5): >128
- Minimum inhibitory concentration ([4]; Staphylococcus aureus clinical strain 1): 1
- Minimum inhibitory concentration ([4]; Staphylococcus aureus clinical strain 2): 1
- Minimum inhibitory concentration ([4]; Staphylococcus aureus clinical strain 3): 1
- Minimum inhibitory concentration ([4]; Staphylococcus aureus clinical strain 4): 1
- Minimum inhibitory concentration ([4]; Staphylococcus aureus clinical strain 5): 1
- Minimum inhibitory concentration ([5]; Streptococcus pneumoniae clinical strain 1): 16
- Minimum inhibitory concentration ([5]; Streptococcus pneumoniae clinical strain 2): 8
- Minimum inhibitory concentration ([5]; Streptococcus pneumoniae clinical strain 3): 16
- Minimum inhibitory concentration ([5]; Streptococcus pneumoniae clinical strain 4): 4
- Minimum inhibitory concentration ([5]; Streptococcus pneumoniae clinical strain 5): 8
- Minimum inhibitory concentration ([6]; Candida albicans clinical yeast strain 1): 8
- Minimum inhibitory concentration ([6]; Candida albicans clinical yeast strain 2): 8
- Minimum inhibitory concentration ([6]; Candida albicans clinical yeast strain 3): 8
- Minimum inhibitory concentration ([6]; Candida albicans clinical yeast strain 4): 16
- Minimum inhibitory concentration ([6]; Candida albicans clinical yeast strain 5): 16
- Minimum inhibitory concentration ([7]; C. glabrata clinical yeast strain 1): 16
- Minimum inhibitory concentration ([7]; C. glabrata clinical yeast strain 2): 16
- Minimum inhibitory concentration ([7]; C. glabrata clinical yeast strain 3): 8
- Minimum inhibitory concentration ([7]; C. glabrata clinical yeast strain 4): 64
- Minimum inhibitory concentration ([8]; C. parapsilosis clinical yeast strain 1): 16
- Minimum inhibitory concentration ([8]; C. parapsilosis clinical yeast strain 2): 8
- Minimum inhibitory concentration ([8]; C. parapsilosis clinical yeast strain 3): 8
- Minimum inhibitory concentration ([8]; C. parapsilosis clinical yeast strain 4): 8
- Minimum inhibitory concentration [9]: 4
- Minimum inhibitory concentration ([10]; Escherichia coli clinical strain 1): 2
- Minimum inhibitory concentration ([10]; Escherichia coli clinical strain 2): 2
- Minimum inhibitory concentration ([10]; Escherichia coli clinical strain 3): 1
- Minimum inhibitory concentration ([10]; Escherichia coli clinical strain 4): 0.5
- Minimum inhibitory concentration ([10]; Escherichia coli clinical strain 5): 1
- Minimum inhibitory concentration ([11]; Klebsiella pneumoniae clinical strain 1): 8
- Minimum inhibitory concentration ([11]; Klebsiella pneumoniae clinical strain 2): 8
- Minimum inhibitory concentration ([11]; Klebsiella pneumoniae clinical strain 3): 4
- Minimum inhibitory concentration ([11]; Klebsiella pneumoniae clinical strain 4): 8
- Minimum inhibitory concentration ([11]; Klebsiella pneumoniae clinical strain 5): 4
- Minimum inhibitory concentration ([12]; Pseudomonas aeruginosa clinical strain 1): 16
- Minimum inhibitory concentration ([12]; Pseudomonas aeruginosa clinical strain 2): 8
- Minimum inhibitory concentration ([12]; Pseudomonas aeruginosa clinical strain 3): 16
- Minimum inhibitory concentration ([12]; Pseudomonas aeruginosa clinical strain 4): 8
- Minimum inhibitory concentration ([12]; Pseudomonas aeruginosa clinical strain 5): 4
